In patent publication US20240299358A1, “COMPOSITIONS AND METHODS FOR DIAGNOSIS AND TREATMENT OF AUTOIMMUNE DISEASES” (DUKE UNIVERSITY, priority 2021, published 2024):

System: eHsp90
Assay: In vivo imaging of eHsp90 expression in T cell transfer mouse model of IBD
Settings: 10 nmoles IV
Protocol: The T cell transfer model of IBD was utilized to evaluate the imaging potential of HS-131 for other autoimmune diseases. Naïve T cells isolated from female donor mice were transferred into SCID mice via IP injection. 3-5 weeks post transfer mice develop inflammation, an extended colon and epithelial hyperplasia. 24 hours post HS-131 tail vein injection mice were cryopreserved and imaged as previously mentioned. […] Experiments represent one mouse.
IBD Disease: On study day 0, Balb/C mice were terminated, and spleens obtained for CD4+CD45RBhigh cell isolation. After cells had been sorted and obtained, each animal received an IP injection of at a minimum 4×10^5 cells (200 μl/mouse injections). […]
CryoViz™ Imaging: Whole mice were imaged at 10.23 μm×10.23 μm in-plane resolution using an Olympus MVX-10 microscope with a 1X objective and 0.63× magnification and 40 μm section thickness, using the Cryo Viz™ (BioInVision, Inc., Cleveland, USA). CryoViz™ is a fully automated, serial sectioning-and-imaging system which provides 3-dimensional, tiled, microscopic anatomical bright field and molecular fluorescence images over large fields-of-view such as a whole mouse. Images were acquired using a dual band FITC/TxRed fluorescence filter (Chroma, Inc., Rockingham, VT), a liquid crystal RGB filter and a low-noise monochrome camera. […]

Cc1nn(-c2ccc(C(N)=O)c(NCCCOCCOCCOCCOCCOCCCNCc3ccc(C(=C\C=C4\N(CCCCS(=O)(=O)[O-])c5ccccc5C4(C)C)/C=C/C4=[N+](CCCCS(=O)(=O)O)c5ccccc5C4(C)C)cc3)c2)c2c1C(=O)CC(C)(C)C2 [HS-131] was tested. Which “uptake in joints or paws of IBD mouse” value (24 hours post injection) did it give?
The value was “no uptake”.

And the “fluorescence from the inflamed bowels of IBD mouse” value (24 hours post injection (FIG. 7A))?
Its value is “extensive fluorescent signaling”.
